# Assay results taken from PubChem BioAssay AID2060605 (Molecular Pharmacology Branch, DTP, NCI, 2025).
# System: 947758-054-R-J2-PDC spheroid growth, percent test/control
# Experiment: Anticancer human tumor 947758-054-R-J2-PDC patient-derived colon adenocarcinoma cell line growth inhibition [CLK]
# Conditions: spheroids with HUVEC and MSC; for IC50: curve of first compound; for viability, T/C: stronger effect = lower value
# Text: A high-throughput screen of multi-cell type tumor spheroids was designed to identify active combinations of […] and targeted small molecules. Complex spheroids include a stromal component modeled by human endothelial cells (HUVEC) and fibroblasts modeled by human mesenchymal stem cells (MSCs). The concentration ranges selected for each drug and investigational agent were based upon clinically achievable concentrations if the clinical Cmax of the agent was known.
# Compounds. The drugs and investigational agents: cirtuvivint (SM08502; NSC835563), CC-671 (NSC850746), vemurafenib (NSC761431), tapotoclax (NSC804041), sotorasib (NSC818433), adagrasib (NSC831453), MRTX-1133 (NSC836407), BAY2416964 (NSC825713), copanlisib (NSC816437), inavolisib (NSC800729), abemaciclib (NSC768073), osimertinib (NSC779217), entinostat (NSC756642), eltanexor (KPT-8602, NSC794443), venetoclax (NSC766270), ceralasertib (NSC777638), bortezomib (NSC756655), olaparib (NSC753686), talazoparib (NSC767125), alisertib (NSC759677), peposertib (NSC802822), gemcitabine (NSC613327), 5-fluorouracil (NSC19893), SN-38 (NSC673596), oxaliplatin (NSC266046), paclitaxel (NSC125973), and doxorubicin (NSC123127), were obtained from the National Cancer Institute (NCI) Developmental Therapeutics Program Chemical Repository. The FDA-approved anticancer drug set is available from the Developmental Therapeutics Program at https://dtp.cancer.gov/organization/dscb/obtaining/available plates.htm. […] The stock solutions were prepared in dimethyl sulfoxide (DMSO, Sigma-Aldrich, St. Louis, MO, cat. D2650), except for the platinum complexes which were prepared in saline (Quality Biological, Gaithersburg, MD, cat. 114-055-101), at 800-fold the tested concentration and stored at -70 degrees C prior to their use. All drugs and investigational agents were tested over a range starting from a high concentration at or near the clinical Cmax and decreasing in half-log increments. If the clinical Cmax for an agent had not been determined, the highest concentration tested was 10 microM.
# Cell Culture. All cells were maintained in an incubator at 37 degrees C and 5% CO2 with 95% humidity. The PDC lines were cultured according to standard operating procedures established by the NCI PDMR. Briefly, all PDCs were thawed and cultured in Matrigel-coated flasks prepared with a working solution of 1X Ham's F-12 nutrient mix, without supplementation (Invitrogen, Waltham, MA, cat. 11765054), 100 U/mL penicillin-streptomycin (Invitrogen, cat. 15140122), and 2.5% Matrigel (Corning Inc., Corning, NY, cat. 354248) for the first three passages. The 947758-054-R-J2-PDC line was cultured in 6B/Colon 1A media, which includes advanced DMEM/F-12 (Thermo Fisher Scientific, cat. 12634028), 10 mM HEPES (Thermo Fisher Scientific, cat. 15630080), 1X GlutaMAX supplement (Thermo Fisher Scientific, cat. 35050061), 0.1 mg/mL primocin (InvivoGen, cat. ant-pm-2), 10% defined fetal bovine serum, heat inactivated (HyClone Laboratories Inc., cat. SH30070.03HI), 1.25 mM N-Acetyl-L-cysteine (Sigma-Aldrich, cat. A9165), 10 mM nicotinamide (Sigma-Aldrich, cat. N0636), 1X B-27 supplement (Thermo Fisher Scientific, cat. 17504044), 1X N-2 supplement (Thermo Fisher Scientific, cat. 17502048), and 10 microM Y-27632 dihydrochloride (Tocris Bioscience, cat. 1254). The 876862-298-R-J1-PDC was cultured in 6E media, which includes all 6B/Colon 1A media components plus 50% L-WRN conditioned media (ATCC, cat. CRL-3276), 50 ng/mL recombinant human EGF recombinant protein (hEGF; Thermo Fisher Scientific, cat. PHG0311), 10 ng/mL recombinant human fibroblast growth factor 10 (hGFG-10; PeproTech, cat. 100-26), 1 ng/mL recombinant human fibroblast growth factor 2 (hFGF-2; PeproTech, cat. 100-18B), and 1 µM prostaglandin E2 (PGE2; Tocris, cat. 2296). The 227483-062-R1-J1-PDC line was cultured in Panc media, containing all 6E components except hFGF-2, with the addition of 500 nM SB-431542 (Selleckchem, cat. S1067) and 10 nM gastrin (Tocris, cat. 3006). […]
# 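Also: spheroids exposed to compounds for one week before readout.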
# 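For viability, T/C in this document: 100% = DMSO vehicle control wells.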
smiles,measurement,setting,value
Nc1ccccc1NC(=O)c1ccc(CNC(=O)OCc2cccnc2)cc1 + CN1CCN(c2cc(C(=O)Nc3cc4cc(-c5cnn(C)c5)ccc4cn3)ccn2)CC1,IC50,second compound 0.0316 µM,4620 nM
same,IC50,second compound 0.1 µM,2700 nM
same,IC50,second compound 0.316 µM,< 31.6 nM
same,IC50,second compound 1 µM,< 31.6 nM
same,IC50,second compound 3.16 µM,< 31.6 nM
same,IC50,second compound 10 µM,< 31.6 nM
same,"viability, T/C","second compound 0.0316 µM, first compound 0.0316 µM",133%
same,"viability, T/C","second compound 0.0316 µM, first compound 0.1 µM",136%
same,"viability, T/C","second compound 0.0316 µM, first compound 0.316 µM",153%
same,"viability, T/C","second compound 0.0316 µM, first compound 1 µM",166%
same,"viability, T/C","second compound 0.0316 µM, first compound 3.16 µM",70.3%
same,"viability, T/C","second compound 0.0316 µM, first compound 10 µM",8.87%
same,"viability, T/C","second compound 0.1 µM, first compound 0.0316 µM",188%
same,"viability, T/C","second compound 0.1 µM, first compound 0.1 µM",178%
same,"viability, T/C","second compound 0.1 µM, first compound 0.316 µM",190%
same,"viability, T/C","second compound 0.1 µM, first compound 1 µM",129%
same,"viability, T/C","second compound 0.1 µM, first compound 3.16 µM",39.4%
same,"viability, T/C","second compound 0.1 µM, first compound 10 µM",4.71%
same,"viability, T/C","second compound 0.316 µM, first compound 0.0316 µM",2.88%
same,"viability, T/C","second compound 0.316 µM, first compound 0.1 µM",6%
same,"viability, T/C","second compound 0.316 µM, first compound 0.316 µM",2.2%
same,"viability, T/C","second compound 0.316 µM, first compound 1 µM",0.82%
same,"viability, T/C","second compound 0.316 µM, first compound 3.16 µM",1.3%
same,"viability, T/C","second compound 0.316 µM, first compound 10 µM",0.07%
same,"viability, T/C","second compound 1 µM, first compound 0.0316 µM",0.15%
same,"viability, T/C","second compound 1 µM, first compound 0.1 µM",0.18%
same,"viability, T/C","second compound 1 µM, first compound 0.316 µM",0.2%
same,"viability, T/C","second compound 1 µM, first compound 1 µM",0.12%
same,"viability, T/C","second compound 1 µM, first compound 3.16 µM",0.57%
same,"viability, T/C","second compound 1 µM, first compound 10 µM",2.05%
same,"viability, T/C","second compound 3.16 µM, first compound 0.0316 µM",0.21%
same,"viability, T/C","second compound 3.16 µM, first compound 0.1 µM",0.63%
same,"viability, T/C","second compound 3.16 µM, first compound 0.316 µM",0.29%
same,"viability, T/C","second compound 3.16 µM, first compound 1 µM",0.28%
same,"viability, T/C","second compound 3.16 µM, first compound 3.16 µM",0.32%
same,"viability, T/C","second compound 3.16 µM, first compound 10 µM",2.87%
same,"viability, T/C","second compound 10 µM, first compound 0.0316 µM",0.31%
same,"viability, T/C","second compound 10 µM, first compound 0.1 µM",0.32%
same,"viability, T/C","second compound 10 µM, first compound 0.316 µM",1.85%
same,"viability, T/C","second compound 10 µM, first compound 1 µM",0.43%
same,"viability, T/C","second compound 10 µM, first compound 3.16 µM",0.45%
same,"viability, T/C","second compound 10 µM, first compound 10 µM",2.2%
